{"source": "patent US20090186915A1", "about": "“Compositions and methods for treatment of glioblastoma, gliosarcoma, NSCLC, and head and neck cancer” (Unibioscreen S. A., priority 2006, published 2009)", "key": {"DU-145": {"system": "DU-145", "test": "Lysosomal membrane permeabilization (LMP), DU-145", "format": "cell-based, human", "settings": "72 hours, 10 μM", "source_text": "It is well known that lysosomes control cell death at several levels. In response to endogenous or exogenous stress (including chemotherapy), lysosomal membrane permeabilization (LMP) can occur, leading to the release of catabolic hydrolases that can mediate caspase-dependent apoptosis, caspase-independent apoptosis-like cell death or even necrosis following high levels of LMP."}, "[1]": {"system": "glioma Hs683 and U373 cells", "test": "Cell cycle kinetics by flow cytometry, glioma cells", "format": "cell-based, human", "method": "The cell cycle kinetics of glioma Hs683 (ATCC code HTB-138) and U373 (ATCC code HTB-17) cells left untreated or incubated with UNBS5162 as indicated were determined by flow cytometry analysis of propidium iodide (PI) nuclear staining, using previously detailed methodology (Mijatovic et al. Neoplasia 2006, 2008). Each sample was evaluated in triplicate. Flow cytometry was undertaken using an Epics XL.MCL flow cytometer and the F ACScan/CellQuest software system (Becton Dickinson, Miami, Fla., USA)."}, "MCF-7": {"system": "MCF-7", "test": "MTT colorimetric assay, MCF-7 cells", "format": "cell-based", "settings": "Homo sapiens, MCF7, 72 h, 3 days of culturing, mean of six determinations, read-out: IC50 (μM) In Vitro Growth Inhibition", "method": "(§1) The overall growth of human cancer cell lines was determined by means of the calorimetric MTT (3-[4,5-dimethylthiazol-2-yl]-diphenyl tetrazolium bromide; Sigma) assay, as detailed previously."}, "[2]": {"system": "human A549 NSCLC orthotopic", "method": "The purpose of the present study was to evaluate the in vivo efficacy of UNBS5162 on human A549 NSCLC orthotopic nude mice model. The endpoint in this experiment was the survival period of the tumor-bearing mice following treatment, as indicated.\nThe experiment comprised 6 groups of II mice, one group with mice receiving the vehicle only (Ct group) and 5 groups receiving the treatments as indicated in the Table 13. UNBS5162 was dosed i.v. at 10 mg/kg (in lactic acid vehicle). Taxol (Paclitaxel 6 mg/mL, Bristol-Myers Squibb) was dosed i.v. at 20 mg/kg."}, "OE21 xenograft": {"system": "OE21 xenograft", "test": "s.c. metastatic OE21 xenograft nude mice model", "format": "in vivo", "settings": "UNBS5162 10 mg/kg i.v. with cisplatin 5 mg/kg i.p.", "method": "To enable the achievement of pertinent in vivo studies, a highly metastatic s.c. model was developed by grafting OE21 cells subcutaneously into nude mice. […] In line with this, an experiment combining cisplatin to UNBS5162 was performed.\nThe treatment protocol included following conditions: • UNBS5162: N-{2-[2-(dimethylamino)ethyl]-1,3-dioxo-2,3-dihydro-1H-benzo[de]isoquinolin-5-yl}urea\nDose (mg/kg): 10 mg/kg (1.35 eq lactic acid) Dose volume: 200 μL/mouse Schedule: 3 injection(s) per week; 5 weeks (3i×5w)\nDose (mg/kg): 5 mg/kg (saline) Dose volume: 200 μL/mouse Schedule: 1 injection per week; 5 weeks (1×5)\nCisplatine (1×5)×5 mg/kg i.p.=>group 1 UNBS5162 (3×5)×10 mg/kg i.v.=>group 3 Cisplatine (1×3)×5 mg/kg i.p.=>1 w without treatment=>UNBS5162 (3×5)× […] i.v.=>group 4"}, "[3]": {"test": "UNBS5162 mouse pharmacokinetics", "format": "in vivo", "method": "Mouse in-life phase. Female B6D2F1 mouse (Charles River, L'Arbresle, France) were administered a single i.v. bolus injection of 20 mg/kg or a single oral dose of 80-mg/kg UNBS5162 as a solution (formulated in 0.5% lactic acid). Dosing volume was 10 ml/kg body weight. The i.v. injection was performed through the tail vein, and the oral dose was given by gavage. Blood sampling for pharmacokinetic analysis was performed by cardiac puncture after Nembutal intraperitoneal injection. The blood was collected over Li-heparin at 0.05, 0.08, 0.17, 0.25, 0.33, 0.5, 0.75, 1, 2, 4, 7, 16, and 24 hours after dose. Five animals were used per time point. Blood was kept on ice for a maximum of 2 hours before isolating plasma by centrifugation, and the resulting plasma was stored at approximately −70° C. until analysis. The samples were subsequently analyzed for UNBS5162 by liquid chromatography-mass spectrometry.\nPlasma concentrations of UNBS5162 were determined using liquid chromatography-mass spectrometry. […] Briefly, solid phase extraction was performed using SPE Oasis HLB columns of 1 ml (Waters). UNBS5162 and the internal standard UNBS5181 were eluted using methanol, evaporated to dryness and reconstituted in starting solvent, a mixture (90:10 v/v) of 0.05% aqueous formic acid (mobile phase A) and 0.05% formic acid in acetonitrile (mobile phase B). Liquid chromatographic separation was effected using an Atlantis T3 column (50×2.1 mm; 3 μm), with an isocratic method with a 90:10 v/v ratio of mobile phases A/B at a flow rate of 250 μl/min for 12.5 minutes, followed by 2 minutes of 100% mobile phase B and then 4.5 minutes reconditioning with the starting solvent at a flow rate of 250 μl/min. Compound detection and quantification were performed by positive ion electrospray ionization on a QToF Ultima mass spectrometer (Micromass, Manchester, UK)."}, "A549": {"system": "A549", "test": "MTT colorimetric assay, A549 cells", "format": "cell-based", "settings": "Homo sapiens, 72 h, 3 days of culturing, mean of six determinations, read-out: IC50 (μM) In Vitro Growth Inhibition", "method": "as §1"}, "LC3-II": {"system": "LC3-II", "test": "LC3-II immunoblot, DU-145", "format": "cell-based, human", "settings": "10 μM"}, "HCT-15": {"system": "HCT-15", "test": "MTT colorimetric assay, HCT-15 cells", "format": "cell-based", "settings": "Homo sapiens, 72 h, 3 days of culturing, mean of six determinations, read-out: IC50 (μM) In Vitro Growth Inhibition", "method": "as §1"}, "[4]": {"settings": "B6D2F1, mouse, plasma, iv, female mice, i.v. 20 mg/kg single"}, "[5]": {"settings": "B6D2F1, mouse, plasma, po, female mice, p.o. 80 mg/kg single"}}, "data": [{"compound": "CN(C)CCN1C(=O)c2cccc3cc(NC(N)=O)cc(c23)C1=O", "note": "[UNBS5162, N-{2-[2-(dimethylamino)ethyl]-1,3-dioxo-2,3-dihydro-1H-benzo[de]isoquinolin-5-yl}urea]", "values": [{"measurement": "lysosomal membrane permeabilization (LMP)", "setting": "DU-145", "value": "a marked drug-induced LMP process appeared"}, {"measurement": "cell cycle kinetics, G2 block", "setting": "[1]; Hs683 and U373, 10 μM for 72 h", "value": "markedly blocked both Hs683 and U373 cells in their G2 cell cycle phase"}, {"measurement": "cell cycle kinetics", "setting": "[1]; glioma cells, 1 μM", "value": "did not significantly modify glioma cell cycle kinetics"}, {"measurement": "cell cycle kinetics", "setting": "[1]; glioma cells, chronic 1 μM for five days", "value": "did not notably modify glioma cell cycle kinetics"}, {"measurement": "cell death on chronic treatment", "setting": "[1]; glioma cells, chronic 10 μM for five days", "value": "induced the death of all assayed cells before the end of experiment"}, {"measurement": "IC50", "setting": "MCF-7", "value": 46.5, "unit": "µM"}, {"measurement": "survival of A549 NSCLC xenograft-bearing mice", "setting": "[2]; UNBS5162 10 mg/kg i.v. in combination with Taxol 20 mg/kg i.v.", "value": "significantly increased the survival"}, {"measurement": "T/C (%)", "setting": "[2]; UNBS5162 i.v. 10 mg/kg (3i × 6w)", "value": 102, "unit": "%"}, {"measurement": "anti-tumor effect in combination with cisplatin (tumor size)", "setting": "OE21 xenograft", "value": "enhanced the activity of cisplatin"}, {"measurement": "AUC(0-inf)", "setting": "[3]; [4]", "value": 5770, "unit": "ng·h/mL"}, {"measurement": "Cmax", "setting": "[3]; [4]", "value": 12000, "unit": "ng/mL"}, {"measurement": "Vd", "setting": "[3]; [4]", "value": 18.9, "unit": "L/kg"}, {"measurement": "half-life", "setting": "[3]; [4]", "value": 3.8, "unit": "h"}, {"measurement": "bioavailability", "setting": "[3]; B6D2F1, mouse, plasma, oral, female mice, p.o. 80 mg/kg versus i.v. 20 mg/kg, read-out: F (absolute bioavailability)", "value": 3.84, "unit": "%"}, {"measurement": "AUC(0-inf)", "setting": "[3]; [5]", "value": 886, "unit": "ng·h/mL"}, {"measurement": "Cmax", "setting": "[3]; [5]", "value": 510, "unit": "ng/mL"}, {"measurement": "Tmax", "setting": "[3]; [5]", "value": 0.3, "unit": "h"}, {"measurement": "Cl", "setting": "[3]; female mice, i.v. 20 mg/kg single", "value": 3.47, "unit": "L/h per kilogram"}, {"measurement": "time for which 1-μM plasma levels are sustained", "setting": "[3]; mice, post-i.v. 20 mg/kg", "value": "≤ 2", "unit": "h"}, {"measurement": "time for which plasma levels of 10 μM are maintained", "setting": "[3]; mice, post-i.v. 20 mg/kg", "value": "approximately 30 minutes"}, {"measurement": "IC50", "setting": "A549", "value": 21.2, "unit": "µM"}, {"measurement": "LC3-II protein (marker of autophagy)", "setting": "LC3-II", "value": "induced the up-regulation of LC3-II protein"}, {"measurement": "IC50", "setting": "HCT-15", "value": 28.8, "unit": "µM"}]}]}
